Data: US20210052537A1, “COLITIS AMELIORATING AGENT” (ASTA PHARMACEUTICALS, CO., LTD., priority 2018, published 2021)
Several values for one entry are separate records, joined by “and”; a condition that tells them apart may be missing. Equal values may be shown once.

System: Oxa-induced colitis
Test: Oxazolone (Oxa)-induced colitis mouse model
Assay type: in vivo
Details: for Colon length / Colon weight (wet weight per length): 6 days, mean ± SD
Source text: In this Example, mouse models to which oxazolone (4-ethoxymethylene-2-phenyl-2-oxazolin-5-on, hereinafter, Oxa) is used will be described as colitis models. When Oxa was first applied to skin, subsequently administered enterally after a certain period of time, an experimental ulcerative colitis model similar to human ulcerative colitis in terms of not only symptoms such as suppression of body weight increase, blood in stools, and anemia and formation of colon erosion but also immune cells was built (Non-Patent Literature 4). A suppression effect of Compound X on colitis in such a model as the test model showing pathological conditions more similar to human ulcerative colitis was examined. For the examination items, the length and weight of the colon were examined as changes in colon properties are widely known to occur also in this model.
For treatment, Balb/c, male mice were purchased from CHARLES RIVER LABORATORIES JAPAN, INC. in accordance with previous literature (Non-Patent Literature 5) and 8-week old mice with no abnormal general conditions during quarantine and acclimation period were used for the experiment. After acclimation, the animals were divided in such a way as to be 1 mouse per cage. Oxa used in the experiment was purchased from Sigma.
Fur at back of the neck was shaved in an area of 1.5×1.5 cm under anesthesia, and 150 μL (a 100% ethanol solution) of 3% (wt/vol) Oxa was added using a pipette and applied between the shoulders to sensitize (Day 1). The mice were kept under such a typical breeding environment, fasted for 16 hours from Day 7 (water supply was continued), and subsequently on Day 8 100 μL of a solution of 1% (wt/vol) Oxa in 50% ethanol was transanally administered into the rectum (3.5 cm from the anus) using a catheter under anesthesia. Hereinafter, the above treatment is described as Oxa treatment. After treatment, typical feeding breeding was carried out.
Starting on the day following intrarectal administration of Oxa, test substances were orally administered (once daily, for 6 days). 5-Aminosalicylic acid (hereinafter 5-ASA, Tokyo Chemical Industry, Co., Ltd.) and prednisolone (hereinafter, PSL, Sigma), which are anti-inflammatory agents used for treating ulcerative colitis, were used as positive controls for the test. After group division, each of the test substances of Table 6 was suspended in a solution of 0.5% sodium carboxymethyl cellulose (hereinafter, CMC, Nacalai Tesque Inc.) in such a way as to be each treatment of Table 6 and orally administered once daily. […] These control groups, Groups 1 and 2, were orally administered, as the test substance, with the 0.5% CMC solution which was used as the medium.
The test started with 6 mice in Group No. 1 and 9 mice each in Group Nos. 2 to 6. After the treatment started, death of animals in Group Nos. 2 to 6 due to the cause considered enteritis from Oxa treatment was observed and thus 6 mice in Group Nos. 1 and 3, and 5 mice in Group Nos. 2 and 6, and 7 mice in Group Nos. 4 and 5 were finally used for analysis.
It is generally acknowledged as a known fact that Oxa treatment causes colon tissue changes such as the length of colon is shortened while the weight increases. For evaluating the therapeutic effect of Compound X, the length and weight of the colon were measured. The mice were euthanized under anesthesia on day 7 of Oxa treatment and dissected to remove the colon. The removed colon was quickly measured for a length in a relaxed state. Subsequently, feces in the intestinal tract were removed and sufficiently washed with phosphate buffered saline (Wako Pure Chemical Industries, Ltd.) and measured for a wet weight.

[1] = Group Nos. 3 to 6 of Table 7, in words
[2] = Oxa treatment + high dose 10 mg/kg/day oral, day 7, 10 mg/kg/day

`CC1=C(/C=C/C(C)=C/C=C/C(C)=C/C=C/C=C(C)/C=C/C=C(C)/C=C/C2=C(C)C(=O)[C@@H](OC(=O)CNC(=O)NCCCC(=O)O)CC2(C)C)C(C)(C)C[C@H](OC(=O)CNC(=O)NCCCC(=O)O)C1=O.NCCCC[C@H](N)C(=O)O.NCCCC[C@H](N)C(=O)O` [Compound X, 4-(3-{4-[18-(4(S)-[3-(3-Carboxypropyl)ureidoacetoxy]-2,6,6-trimethyl-3-oxocyclohexa-1-enyl)-3,7,12,16-tetramethyloctadeca-1(E),3(E),5(E),7(E),9(E),11(E),13(E),15(E),17(E)-nonaenyl]-3,5,5-trimethyl-2-oxocyclohex-3-enyl-1(S)-oxycarbonylmethyl}ureido)butyric acid dilysine salt] was tested, and the “Colon length compared with Vehicle group” value [1] was “longer length of the colon than Vehicle group”, the “Colon wet weight compared with Vehicle group” value [1] was “suppressed weight increases compared with Vehicle group” and the Colon length [2] was 8.74 cm and 8.74 ± 0.48 cm. For the same molecule, the “Colon weight (wet weight per length)” value [2] was 2.80 mg/mm and 2.80 ± 0.43 mg/mm, the Colon length (Oxa treatment + low dose 3 mg/kg/day oral, Balb/c mice, day 7 of Oxa treatment, 3 mg/kg/day) was 8.72 cm and 8.72 ± 0.50 cm and the “Colon weight (wet weight per length)” value (Oxa treatment + low dose 3 mg/kg/day oral, day 7, 3 mg/kg/day) was 3.44 mg/mm and 3.44 ± 0.45 mg/mm.
